# Paper PMC5515969, “Effects of 31 FDA approved small-molecule kinase inhibitors on isolated rat liver mitochondria” (Archives of Toxicology, 2016)
# Like-named read-outs stand apart in the source and are kept apart here.
# Experiments:
# [1] = tested on: isolated rat liver mitochondria; experiment: Mitochondrial oxygen consumption (glutamate/malate or succinate driven, state 4 and state 3); format: biochemical; conditions: DMSO treated samples set as 1; for State 3 respiration driven by succinate at 10XCmax: key: 0 indicates that the drug had no effects (negative); for State 3 respiration driven by succinate at 1XCmax: key: 0 indicates that the drug had no effects (negative)
# Procedure: Rats were anesthetized by an intraperitoneal injection of Nembutal and the liver perfused with PBS to remove the blood. The liver was then cut into small pieces and homogenized using a Dounce type homogenizer in the ice-cold isolation buffer (IB) containing 200 mM sucrose, 10 mM Tris-MOPS, 1 mM EGTA (pH 7.4). The sample was then centrifuged at 600g for 10 min. The supernatant was further centrifuged at 7500g for 10 min, and the pellets was washed once with the IB and centrifuged again at 7500g for 10 min to collect mitochondria. […] Before drug treatment, the protein concentration was adjusted to 1 mg/ml using appropriate buffer. […] Briefly, mitochondrial and cytosolic fractions from four different preparations using four rats were diluted using the Laemmli protein loading buffer and subject to SDS-PAGE with 4–20% gradient gels. The proteins were blotted to PVDF membranes and detected using antibodies against GAPDH, ATP5A, UQCRC2, SDHB, and NDUFB8.
# The aliquoted stock solutions were kept for less than one month and each tube was used only once. The KIs were added to the mitochondria at 1:1000 dilutions. […] The Cmax data were from clinical trials which used FDA recommend dosages, route of administration, and duration. […] The final concentration of DMSO for drug treatment was always 0.1%, and control treatments were 0.1% DMSO.
# Briefly, mitochondria were incubated with the KIs for 5 min, and then split evenly and loaded to the sample tubes of two Oxytherm systems (Hansatech Instruments Ltd), with one system used for measuring glutamate/malate driven respiration and the other succinate-driven respiration, both of which were defined as state 4 respiration. After 3 min, ADP was added to measure the maximal oxygen consumption rate, which was defined as state 3 respiration. […] The oxygen consumption rate of DMSO-treated samples (controls) was set as 1.
# RCC I = RCC I activity in submitochondrial particles; format: biochemical, rat; design: key to RCC I at 10XCmax / RCC I at 100XCmax / RCC I at 50XCmax / RCC I at 30XCmax / RCC I at 20XCmax: activity relative to DMSO-treated controls (control set as 1 = 100%); conditions: 10XCmax; relative to DMSO treated samples
# Procedure: (§1) KIs were incubated with submitochondrial particles (1 mg/ml) for 15 min and then RCC I–V activities measured. […] The activities of DMSO-treated samples (controls) were set as 1. […] The difference between the activity from rotenone-containing buffer and rotenone-absent buffer was considered as RCC I activity. […] For measuring RCC I/V and II activity, the changes in absorbance at 340 and 600 nm, respectively, were determined every 1 min for 6 min. For measuring RCC III and RCC IV, the changes in absorbance at 550 nm were measured every 10 s for 2 min.
# RCC II = target: T1, RCC II (Rattus norvegicus, UniProt P21913+Q641Z9+Q6PCT8+Q920L2); experiment: RCC II activity in submitochondrial particles; format: biochemical; design: key: activity relative to DMSO-treated controls (control set as 1 = 100%); conditions: relative to DMSO treated samples
# T1 construct: Submitochondrial particles were prepared by subjecting the intact mitochondria to three successive freeze–thaw cycles; from tissue; host or cells: rat liver mitochondria, used as submitochondrial particles
# Procedure: as §1
# RCC III = RCC III activity in submitochondrial particles; format: biochemical, rat; design: key to RCC III at 100XCmax: activity relative to DMSO-treated controls (control set as 1 = 100%); conditions: for RCC III at 100XCmax: relative to DMSO treated samples; for RCC activity III: 15 min, DMSO-treated = 100
# Procedure: as §1
# RCC IV = RCC IV activity in submitochondrial particles; format: biochemical, rat; design: key to RCC IV at 50XCmax / RCC IV at 100XCmax: activity relative to DMSO-treated controls (control set as 1 = 100%); conditions: for RCC IV at 50XCmax: relative to DMSO treated samples, in %; for RCC activity IV: 15 min, DMSO-treated = 100
# Procedure: as §1
# RCC V = RCC V activity in submitochondrial particles; format: biochemical, rat; conditions: for RCC V at 5XCmax / RCC V at 50XCmax: relative to DMSO treated samples; for RCC activity V: 15 min, DMSO-treated = 100; for RCC V at 5XCmax: key: 0 indicates that the drug had no effects (negative)
# Procedure: as §1
# [2] = tested on: isolated rat liver mitochondria; experiment: Mitochondrial inner membrane potential (MMP), Rhodamine 123; format: biochemical; conditions: difference in signal between KI and DMSO treated samples at the end of experiments
# Excerpt: Fig. 3 KI effects on mitochondrial inner membrane potential (MMP). […] In a, c, data are means and standard derivations from three separate experiments. *p < 0.05 as compared to DMSO-treated samples at the end of experiments. In b, data are means of two independent experiments
# [3] = tested on: isolated rat liver mitochondria; experiment: Mitochondrial swelling (absorbance at 535 nm); format: biochemical; conditions: for Swelling 1XCmax / Swelling 2.5XCmax / Swelling 5XCmax / Swelling 10XCmax / Swelling 20XCmax / Swelling 30XCmax / Swelling 50XCmax / Swelling 100XCmax: difference in signal between KI and DMSO treated samples at the end of experiments; for Swelling 5XCmax: key: 0 indicates that the drug had no effects (negative)
# [4] = tested on: isolated rat liver mitochondria; conditions: positive control alamethicin treated samples
# [5] = design: method as in product labeling; conditions: ref product labeling, cited from earlier work
# [6] = cited from earlier work
# [7] = tested on: isolated rat liver mitochondria; experiment: Mitochondrial ROS production (CM-H2DCFDA); conditions: for ROS measured by CM-H2DCFDA at 1XCmax / ROS measured by CM-H2DCFDA at 2.5XCmax / ROS measured by CM-H2DCFDA at 5XCmax / ROS measured by CM-H2DCFDA at 10XCmax / ROS measured by CM-H2DCFDA at 20XCmax / ROS measured by CM-H2DCFDA at 30XCmax / ROS measured by CM-H2DCFDA at 50XCmax / ROS measured by CM-H2DCFDA at 100XCmax: DMSO treated samples set as 1
# [8] = cited from earlier work; remark: listed apart in the source
# T1 sequence (Q920L2 35-656): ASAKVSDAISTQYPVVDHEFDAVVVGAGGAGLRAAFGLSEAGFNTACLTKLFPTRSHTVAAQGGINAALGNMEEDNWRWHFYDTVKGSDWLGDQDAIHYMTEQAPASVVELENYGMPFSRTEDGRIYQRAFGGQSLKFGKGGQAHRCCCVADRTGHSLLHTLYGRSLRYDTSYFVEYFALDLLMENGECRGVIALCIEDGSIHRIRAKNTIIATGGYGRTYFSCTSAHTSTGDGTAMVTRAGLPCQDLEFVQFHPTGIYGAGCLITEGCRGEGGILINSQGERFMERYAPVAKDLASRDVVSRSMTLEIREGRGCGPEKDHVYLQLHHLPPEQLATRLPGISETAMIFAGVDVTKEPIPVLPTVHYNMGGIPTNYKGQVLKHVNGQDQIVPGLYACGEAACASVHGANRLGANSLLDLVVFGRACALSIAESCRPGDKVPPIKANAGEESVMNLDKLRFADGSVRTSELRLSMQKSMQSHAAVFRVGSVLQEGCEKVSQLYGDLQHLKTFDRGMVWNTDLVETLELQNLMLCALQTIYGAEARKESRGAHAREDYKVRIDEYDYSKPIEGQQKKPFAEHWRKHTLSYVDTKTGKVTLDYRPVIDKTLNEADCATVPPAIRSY
# T1 sequence (P21913 31-282): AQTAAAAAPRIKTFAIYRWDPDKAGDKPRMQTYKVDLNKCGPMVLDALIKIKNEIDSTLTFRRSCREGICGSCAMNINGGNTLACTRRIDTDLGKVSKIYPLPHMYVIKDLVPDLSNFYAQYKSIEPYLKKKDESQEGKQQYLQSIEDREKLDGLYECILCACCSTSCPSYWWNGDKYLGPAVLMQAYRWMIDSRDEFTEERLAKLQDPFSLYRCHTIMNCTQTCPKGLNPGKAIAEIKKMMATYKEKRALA
# T1 sequence (Q641Z9 1-169): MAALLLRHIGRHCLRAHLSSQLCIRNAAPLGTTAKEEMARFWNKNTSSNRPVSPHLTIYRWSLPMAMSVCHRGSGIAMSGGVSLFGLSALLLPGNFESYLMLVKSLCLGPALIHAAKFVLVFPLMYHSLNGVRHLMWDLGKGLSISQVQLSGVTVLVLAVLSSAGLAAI
# T1 sequence (Q6PCT8 57-159): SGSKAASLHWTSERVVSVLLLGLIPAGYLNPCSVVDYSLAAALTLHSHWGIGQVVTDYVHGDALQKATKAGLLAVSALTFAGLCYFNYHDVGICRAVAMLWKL
compound,measurement,setting,value
COc1cc2ncnc(Nc3ccc(F)c(Cl)c3)c2cc1OCCCN1CCOCC1 [Gefitinib],State 3 respiration driven by succinate at 1XCmax,[1]; 1XCmax,0
same,State 4 respiration driven by succinate at 1XCmax,[1]; 1XCmax,0
same,State 3 respiration driven by succinate at 2.5XCmax,[1]; 2.5XCmax,0
same,State 4 respiration driven by succinate at 2.5XCmax,[1]; 2.5XCmax,0
same,State 3 respiration driven by succinate at 5XCmax,[1]; 5XCmax,0
same,State 4 respiration driven by succinate at 5XCmax,[1]; 5XCmax,0
same,State 3 respiration driven by succinate at 10XCmax,[1]; 10XCmax,0
same,State 4 respiration driven by succinate at 10XCmax,[1]; 10XCmax,0
same,State 3 respiration driven by succinate at 20XCmax,[1]; 20XCmax,0
same,State 4 respiration driven by succinate at 20XCmax,[1]; 20XCmax,0
same,State 3 respiration driven by succinate at 30XCmax,[1]; 30XCmax,0
same,State 4 respiration driven by succinate at 30XCmax,[1]; 30XCmax,0
same,State 3 respiration driven by succinate at 50XCmax,[1]; 50XCmax,0
same,State 4 respiration driven by succinate at 50XCmax,[1]; 50XCmax,0
same,State 3 respiration driven by succinate at 100XCmax,[1]; 100XCmax,0
same,State 4 respiration driven by succinate at 100XCmax,[1]; 100XCmax,0
same,RCC I at 10XCmax,RCC I,0
same,RCC II at 1.0XCmax,RCC II,0
same,RCC II at 2.5XCmax,RCC II,0
same,RCC II at 5XCmax,RCC II,0
same,RCC II at 10XCmax,RCC II,0
same,RCC II at 20XCmax,RCC II,0
same,RCC II at 30XCmax,RCC II,0
same,RCC II at 50XCmax,RCC II,0
same,RCC II at 100XCmax,RCC II,0
same,RCC III at 100XCmax,RCC III,0
same,RCC IV at 50XCmax,RCC IV,0
same,RCC V at 5XCmax,RCC V,0
same,RCC V at 50XCmax,RCC V,0
same,MMP measured by Rhodamine 123 at 1XCmax,[2],0
same,MMP measured by Rhodamine 123 at 2.5XCmax,[2],0
same,MMP measured by Rhodamine 123 at 5XCmax,[2],0
same,MMP measured by Rhodamine 123 at 10XCmax,[2],0
same,MMP measured by Rhodamine 123 at 20XCmax,[2],0
same,MMP measured by Rhodamine 123 at 30XCmax,[2],0
same,MMP measured by Rhodamine 123 at 50XCmax,[2],0
same,MMP measured by Rhodamine 123 at 100XCmax,[2],0
same,Swelling 1XCmax,[3],0
same,Swelling 2.5XCmax,[3],0
same,Swelling 5XCmax,[3],0
same,Swelling 10XCmax,[3],0
same,Swelling 20XCmax,[3],0
same,Swelling 30XCmax,[3],0
same,Swelling 50XCmax,[3],0
same,Swelling 100XCmax,[3],0
same,Cytochrome c release 1XCmax,[4],0
same,Cytochrome c release 2.5XCmax,[4],0
same,Cytochrome c release 5XCmax,[4],0
same,Cytochrome c release 10XCmax,[4],0
same,Cytochrome c release 20XCmax,[4],0
same,Cytochrome c release 30XCmax,[4],0
same,Cytochrome c release 50XCmax,[4],0
same,Cytochrome c release 100XCmax,[4],0
same,Potential for cardiotoxicity (based on labeling),[5],0
same,Cmax,"[6]; human therapeutic Cmax at FDA recommended dosages, ref product labeling and drug approval packages at the official FDA website",0.27 µM
same,Cmax,"[6]; read-out: Cmax at µM, therapeutic maximal blood concentration, ref product labeling",0.27 µM
same,Cmax,"[6]; therapeutic maximal blood concentration, ref product labeling",122 ng/mL
same,ROS measured by CM-H2DCFDA at 1XCmax,[7],0
same,ROS measured by CM-H2DCFDA at 2.5XCmax,[7],0
same,ROS measured by CM-H2DCFDA at 5XCmax,[7],0
same,ROS measured by CM-H2DCFDA at 10XCmax,[7],0
same,ROS measured by CM-H2DCFDA at 20XCmax,[7],0
same,ROS measured by CM-H2DCFDA at 30XCmax,[7],0
same,ROS measured by CM-H2DCFDA at 50XCmax,[7],0
same,ROS measured by CM-H2DCFDA at 100XCmax,[7],0
C[C@@H](Oc1cc(-c2cnn(C3CCNCC3)c2)cnc1N)c1c(Cl)ccc(F)c1Cl [Crizotinib],RCC II at 1.0XCmax,RCC II,0
same,RCC II at 2.5XCmax,RCC II,0
same,RCC II at 5XCmax,RCC II,0
same,RCC II at 10XCmax,RCC II,0
same,RCC II at 20XCmax,RCC II,0
same,RCC II at 30XCmax,RCC II,0
same,RCC II at 50XCmax,RCC II,0
same,RCC II at 100XCmax,RCC II,0
same,RCC activity III,RCC III; 20-fold Cmax,99.67 ± 8.65 % of control
same,RCC activity III,RCC III; 30-fold Cmax,106.26 ± 5.79 % of control
same,RCC activity III,RCC III; 50-fold Cmax,98.02 ± 7.16 % of control
same,RCC activity III,RCC III; 100-fold Cmax,103.28 ± 2.85 % of control
same,RCC III at 100XCmax,RCC III,0
same,RCC activity IV,RCC IV; 20-fold Cmax,94.03 ± 9.67 % of control
same,RCC activity IV,RCC IV; 30-fold Cmax,96.65 ± 4.14 % of control
same,RCC activity IV,RCC IV; 50-fold Cmax,103.77 ± 5.67 % of control
same,RCC IV at 50XCmax,RCC IV,0
same,RCC activity IV,RCC IV; 100-fold Cmax,96.60 ± 8.40 % of control
same,RCC V at 5XCmax,RCC V,0
same,RCC activity V,RCC V; 20-fold Cmax,95.77 ± 7.64 % of control
same,RCC activity V,RCC V; 30-fold Cmax,98.65 ± 2.98 % of control
same,RCC activity V,RCC V; 50-fold Cmax,91.95 ± 5.63 % of control
same,RCC V at 50XCmax,RCC V,0
same,MMP measured by Rhodamine 123 at 1XCmax,[2],0
same,MMP measured by Rhodamine 123 at 2.5XCmax,[2],0
same,MMP measured by Rhodamine 123 at 5XCmax,[2],0
same,MMP measured by Rhodamine 123 at 10XCmax,[2],0
same,MMP measured by Rhodamine 123 at 20XCmax,[2],0
same,MMP measured by Rhodamine 123 at 30XCmax,[2],0
same,MMP measured by Rhodamine 123 at 50XCmax,[2],0
same,MMP measured by Rhodamine 123 at 100XCmax,[2],0
same,Swelling 1XCmax,[3],0
same,Swelling 2.5XCmax,[3],0
same,Swelling 5XCmax,[3],0
same,Swelling 10XCmax,[3],0
same,Swelling 20XCmax,[3],0
same,Swelling 30XCmax,[3],0
same,Swelling 50XCmax,[3],0
same,Swelling 100XCmax,[3],0.19±0.03
same,effect on mitochondrial swelling,"[3]; up to 100-fold Cmax or highest testable concentration, 25 µM calcium chloride",significant mitochondrial swelling
same,Cytochrome c release 1XCmax,[4],0
same,Cytochrome c release 2.5XCmax,[4],0
same,Cytochrome c release 5XCmax,[4],0
same,Cytochrome c release 10XCmax,[4],0
same,Cytochrome c release 20XCmax,[4],0
same,Cytochrome c release 30XCmax,[4],0
same,Cytochrome c release 50XCmax,[4],12.29±1.27 percentage of the positive control group
same,Cytochrome c release 100XCmax,[4],24.66±1.67 percentage of the positive control group
same,Labeling for cardiotoxicity,"[5]; BBW: black box warning, W&P: Warnings and Precautions",W&P: QT Interval Prolongation; Bradycardia
same,Potential for cardiotoxicity (based on labeling),[5],1
same,DILI potential (based on labeling),"[8]; 1 = DILI positive, 0 = negative, ref product labeling",1
same,Labeling for DILI,"[8]; BBW: black box warning, W&P: Warnings and Precautions, ref product labeling",W&P: fatal DILI
same,labeling for DILI,"[8]; W&P warnings and precautions, BBW black box warnings, ref FDA product labeling",W&P: fatal DILI
same,DILI potential (based on labeling),[8]; ref FDA product labeling,1
same,ROS measured by CM-H2DCFDA at 1XCmax,[7],0
same,ROS measured by CM-H2DCFDA at 2.5XCmax,[7],0
same,ROS measured by CM-H2DCFDA at 5XCmax,[7],0
same,ROS measured by CM-H2DCFDA at 10XCmax,[7],0
same,ROS measured by CM-H2DCFDA at 20XCmax,[7],1.46±0.08
same,ROS measured by CM-H2DCFDA at 30XCmax,[7],1.75±0.32
same,ROS measured by CM-H2DCFDA at 50XCmax,[7],2.06±0.27
same,ROS measured by CM-H2DCFDA at 100XCmax,[7],2.74±0.18
same,effect on ROS production,[7]; highest tested concentrations,significantly ROS production
